This is an account of results in paper PMC10179701, “Towards Protection of Nucleic Acids from Herbicide Attack: Self-Assembly of Betaines Based on Pillar[5]arene with Glyphosate and DNA” (International Journal of Molecular Sciences, 2023).

In one data set the test system is LEC cells. Description: MTT test, LEC cells. The procedure: The next stage of this work was the study of pillar[5]arenes 1–4 ability to inhibit the viability and proliferative activity of embryonic lung epithelial (LEC) and human lung adenocarcinoma (A549) cells using the MTT test.
Further, the ability of GIS to inhibit the viability and proliferative activity of LEC and A549 cells was studied by the MTT test. […] The average inhibitory concentration (IC50) was calculated for GIS (Table 3). […]
1.6. Cytotoxicity of pillar[5]arenes 1–4, GIS and their mixtures on A549 and LEC Cell Lines […]
activity of LEC cells and A549 cells was investigated using the MTT test according to [2]. A549 – human alveolar adenocarcinoma cell line (ATCC, Rockville, Maryland, USA) and cow embryo lung epithelial (LEC) cells (Animal Cell Culture Collection of Russian Academy of Agricultural Science, Kazan, Russia) were cultured in DMEM (GIBCO, Waltham, MA, USA) medium supplemented with 10% serum and 100 units/mL of penicillin (PanEco, Moscow, Russia) and streptomycin (PanEco, Moscow, Russia) in a humidified atmosphere with 5% CO2 at 37 °C. Cells were seeded in 96‐well plates at a concentration of 10^4 cells/well. After 24 h of cultivation, the medium was removed from the wells and replaced with a fresh one with the addition of the test substances. The volume of the culture medium in the wells was 100
μL. After 24 h incubation of cells in the presence of substances, the medium in the wells was replaced with a fresh one containing MTT reagent at a final concentration of 0.5 mg/mL. The cells were incubated with MTT for 4 h at 37 °C in an atmosphere of 5% CO2. Then, the medium was aspirated from the wells and 100 μL of dimethyl sulfoxide was added. Probes were incubated at 37 °C for 15 min in the dark for the formazan crystals to dissolve. The optical density of the formazan solution in the wells was measured using a plate reader (BioRad xMarkTM Microplate Spectrophotometer, USA) at a wavelength of 570 nm.
Three series of experiments were carried out with at least 8 replications for each variant in the series. […]
In general terms: Formazan colour is commonly taken as a measure of viable cells.

A short description of data set [1]: Dynamic light scattering of macrocycle aggregates in water. It is filed as physicochemical. The following applies: H2O, 298 K. The procedure:
The next stage of the work was the study of aggregation properties of both previously synthesized ester derivatives of amino acids 1 and 2, and macrocyclic betaine derivatives 3 and 4 by dynamic light scattering (DLS). The study was carried out in water in the 1 × 10^–6–1 × 10^–4 M concentration range (Figures S11–S22). The size of associates increases with decreasing macrocycle 1 concentration in solution (Table 1). A different pattern is observed for betaine derivative 3. Thus, the particles become coarser, and the polydispersity index (PDI) of the systems increased with an increase in compound 3 concentration, which is probably due to the formation of β-sheets by oligopeptide substituents. The presence of two oppositely charged fragments in one substituent leads to the fact that compound 3 becomes similar to surfactant molecules in terms of its aggregation properties.

Another data set deals with A549 cells. The experiment in a line: MTT assay, combined action of macrocycles with GIS on A549 cells. It counts as cell-based, human. The following applies: A549, pillararene 1 × 10^–5 M with GIS 3.47 × 10^–2 M. As to the method: The ability to inhibit the viability and proliferative activity of A549 cells of macrocycles 1–4 in the presence of GIS was studied using the MTT assay. […] The developed approach opens up the possibility of creating pillar[5]arene-based herbicide antidotes. […]
fresh one with the addition of the test substances.
Then, the medium was aspirated from the wells
and 100 μL of dimethyl sulfoxide was added.
the formazan crystals to dissolve. […]
substances. […] After 24 h of incubation cells were […]

Structures are written as SMILES. Marks after values point to notes of the source that are not given here.

Consider `C[N+](C)(CCCNC(=O)COc1cc2c(OCC(=O)NCCC[N+](C)(C)CC(=O)N[C@@H](Cc3ccccc3)C(=O)[O-])cc1Cc1cc(OCC(=O)NCCC[N+](C)(C)CC(=O)N[C@@H](Cc3ccccc3)C(=O)[O-])c(cc1OCC(=O)NCCC[N+](C)(C)CC(=O)N[C@@H](Cc1ccccc1)C(=O)[O-])Cc1cc(OCC(=O)NCCC[N+](C)(C)CC(=O)N[C@@H](Cc3ccccc3)C(=O)[O-])c(cc1OCC(=O)NCCC[N+](C)(C)CC(=O)N[C@@H](Cc1ccccc1)C(=O)[O-])Cc1cc(OCC(=O)NCCC[N+](C)(C)CC(=O)N[C@@H](Cc3ccccc3)C(=O)[O-])c(cc1OCC(=O)NCCC[N+](C)(C)CC(=O)N[C@@H](Cc1ccccc1)C(=O)[O-])Cc1cc(OCC(=O)NCCC[N+](C)(C)CC(=O)N[C@@H](Cc3ccccc3)C(=O)[O-])c(cc1OCC(=O)NCCC[N+](C)(C)CC(=O)N[C@@H](Cc1ccccc1)C(=O)[O-])C2)CC(=O)N[C@@H](Cc1ccccc1)C(=O)[O-]` [Compound 4, 4,8,14,18,23,26,28,31,32,35-Decakis-[(N-[3’-dimethyl({oxidocarbonyl[S-benzyl]methyl}aminocarbonylmethyl)ammonio]propyl)aminocarbonylmethoxy]-pillar[5]arene], for which the IC50 with LEC cells (MTT, 24 h) was >100 * μg/mL. Moreover, the cytotoxic activity result in the data set on LEC cells (concentration range 2–100 μg/mL) is “did not show statistically significant cytotoxic activity”. Further, the “polydispersity index (PDI)” value turned out to be 0.36 in data set [1] (1 × 10^–4 M), 0.41 in data set [1] (1 × 10^–5 M) and 0.42 in data set [1] (1 × 10^–6 M). The “size of aggregates d” value in data set [1] (1 × 10^–4 M) stood at 127 ± 16 nm; in data set [1] (1 × 10^–5 M), 218 ± 10 nm; in data set [1] (1 × 10^–6 M), 457 ± 65 nm. Also, the “change of toxicity on combined action with GIS” value in the data set on A549 cells was “No significant differences”.
